This note sets out measurements from patent US20230190707A1, “COMPOSITIONS AND METHODS FOR ENHANCING CANCER IMMUNOTHERAPY” (FRED HUTCHINSON CANCER CENTER, priority 2020, published 2023).

In series [1] the test system is lung and colonic tissue, splenic T cells. The series can be described thus: RNA-seq of non-tumor tissues from indisulam-treated animals. In kind it is in vivo, mouse. The procedure: Bulk lung and colon were homogenized using a Qiagen TissueRuptor. For all tissues and cell types, RNA was extracted using an RNeasy kit (Qiagen, Frederick, Md.) and quantified using a NanoDrop 8000 (ThermoFisher Scientific). A minimum of 500 ng of high-quality RNA (as determined by Agilent Bioanalyzer) per sample or replicate was used for library preparation. Poly(A)-selected, strand-specific (dUTP method) Illumina libraries were prepared with a modified TruSeq protocol and sequenced on the Illumina HiSeq 2000 (˜100M 2×101 bp paired-end reads per sample or replicate).
RNA-seq analysis was performed as previously described (Dvinge, H., et al. (2014). Sample processing obscures cancer-specific alterations in leukemic transcriptomes. Proc Natl Acad Sci USA 111, 16802-16807, incorporated herein by reference in its entirety). […] Aligned reads from these two mapping steps were merged to generate final BAM files for all subsequent analyses.
MISO v2.0 was used to quantify all expression of isoforms arising from exon skipping (cassette exons), competing 5′ splice site selection, competing 3′ splice site selection, and annotated intron retention. […]

The subject of a further series is CD8^+ T cells. In words: Peptide:H-2K^b tetramer staining of tumor-draining lymph nodes. As to conditions: B16-F10 tumor-bearing mice, day 14. It is filed as in vivo, mouse.

Regarding `NS(=O)(=O)c1ccc(S(=O)(=O)Nc2cccc3c(Cl)c[nH]c23)cc1` [indisulam], the “splicing changes in lung, colonic tissue and splenic T cells” value in series [1] is given as “only mild changes in splicing”. In addition, the “frequencies of CD8^+ T cells recognizing splicing-derived peptides in tumor DLN” value in the series on CD8^+ T cells is reported as “increased frequencies of CD8^+ T cells”.
